In PMC12345137 (mBio, 2025):
Like-named read-outs stand apart in the source and are kept apart here. Positions of bridges follow the written chain, without caps; N, C: chain ends. Residues, ends and D or L forms follow the SMILES beside them.

Columns and labels:
[1] = tested on: S. aureus (SA) agr-IV; conditions: fluorescence, cited from earlier work
[2] = target: SA AgrC-IV (Staphylococcus aureus, UniProt Q309Z2); experiment: β-Lactamase assay, reporter strain RN10829 (P2-agrA:P3-blaZ) with pagrC-IV; type: cell-based; conditions: for IC50, SA AgrC-IV, b-lactamase assay: 100 nM cognate AIP, ± SEM, -b = no inhibition recorded at the highest AIP concentration tested, -a = only partial inhibition observed, this study (curves in Fig. S22)
From the text: (§1) The β-lactamase reporter strain RN10829 (P2-agrA:P3-blaZ) ([62]), with pagrC-I ([63]), pagrC-II, pagrC-III, or pagrC-IV ([11]), substituting the native agr locus with a chromosomal integration of P2-agrA and P3-blaZ and a plasmid from which a wild-type variant of the corresponding AgrC is expressed, was used to assess inhibition and activation of the AgrC receptor via β-lactamase activity in response to varying concentrations of the QS modulating peptides. Overnight cultures of the reporter strains in TSB medium were diluted 1:250 in fresh TSB medium and grown to OD600 = 0.35–0.40 (early exponential phase) at 37°C. Peptide solutions (10 μL) in 1:10 serial dilutions from DMSO stock solutions (1 mM) in TSB medium (final concentrations = 10 μM–10 pM) were added to each well of a clear 96-well plate as well as solutions (10 μL) of cognate AIP (final concentration = 100 nM) in TSB medium followed by 80 μL of bacterial cells. Control wells for 100% β-lactamase activity were wells replacing peptide solution with TSB media (10 μL), and control wells for 0% β-lactamase activity were wells replacing both peptide and cognate AIP solutions with TSB medium (20 μL). The 96-well plates were incubated at 37°C shaking at 200 rpm for 1 h and immediately frozen down at −80°C to minimize growth during nitrocefin treatment. Next, the 96-well plates were thawed, and OD600 values were determined using a plate reader followed by the addition of 50 μL of nitrocefin solution to the wells (final concentration = 33.3 μg/mL). β-Lactamase activity was monitored at OD486 every 20 s for 10 min at 37°C using a plate-reader. Linear nitrocefin conversion rates were plotted to obtain IC50 values by non-linear regression with variable slope using GraphPad Prism 10.4 software. Assays were performed at least as duplicate determinations in biological triplicate.

[3] = target: SA AgrC-I (Staphylococcus aureus, UniProt O07911); experiment: β-Lactamase assay, reporter strain RN10829 (P2-agrA:P3-blaZ) with pagrC-I; type: cell-based
From the text: as §1, with “Control wells for 100% β-lactamase activity were wells replacing peptide solution with TSB media (10 μL), and control wells for 0% β-lactamase activity were wells replacing both peptide and cognate AIP solutions with TSB medium (20 μL).” left out

[4] = tested on: S. aureus (SA) agr-III; conditions: fluorescence, cited from earlier work
[5] = target: SA AgrC-II (Staphylococcus aureus, UniProt O33587); experiment: β-Lactamase assay, reporter strain RN10829 (P2-agrA:P3-blaZ) with pagrC-II; type: cell-based; conditions: for IC50, SA AgrC-II, b-lactamase assay: 100 nM cognate AIP, ± SEM, -b = no inhibition recorded at the highest AIP concentration tested, -a = only partial inhibition observed, this study (curves in Fig. S20)
From the text: as §1

[6] = target: SA AgrC-III (Staphylococcus aureus, UniProt O33590); experiment: β-Lactamase assay, reporter strain RN10829 (P2-agrA:P3-blaZ) with pagrC-III; type: cell-based; conditions: for IC50, SA AgrC-III, b-lactamase assay: 100 nM cognate AIP, ± SEM, -b = no inhibition recorded at the highest AIP concentration tested, -a = only partial inhibition observed, this study (curves in Fig. S21)
From the text: as §1

[7] = tested on: S. aureus (SA) agr-II; conditions: fluorescence, cited from earlier work
[8] = tested on: S. aureus (SA) agr-I; conditions: fluorescence; ref (15); cited from earlier work
[9] = tested on: S. epidermidis (SE) agr-III; conditions: fluorescence; from supernatant; ref (18); cited from earlier work
[10] = tested on: S. epidermidis (SE) agr-II; conditions: fluorescence; from supernatant; ref (18); cited from earlier work
[11] = tested on: S. epidermidis (SE) agr-I; conditions: fluorescence, cited from earlier work
[12] = target: S. epidermidis agr-II (Staphylococcus epidermidis, UniProt Q8VSX5); experiment: cell-based; type: cell-based; conditions: fluorescent reporter strain; peptides tested at 1000, 50, 2.5, 0.125 nM or in dose-response
Description: (§2) Peptides were evaluated for the ability to interfere with agr-mediated quorum sensing in S. aureus (AH1677, AH430, AH1747, and AH1872 for agr-I–IV, respectively) ([40]) using reporter strains expressing yellow fluorescent protein (YFP) upon agr activation. Interference with agr-mediated quorum sensing in S. epidermidis (AH3408, AH3623, and AH3409 for agr-I–III, respectively) ([45]), and S. lugdunensis (AH4031 for agr-I) ([37]) was evaluated using reporter strains expressing superfolder green fluorescent protein (sGFP) upon agr activation. Overnight cultures of the reporter strains were grown in TSB medium containing chloramphenicol (CAM, 10 μg/mL for S. aureus) or erythromycin (ERM, 10 μg/mL of S. epidermidis and S. lugdunensis) and diluted 1:100 in fresh TSB medium containing the same antibiotic. Assays were performed in sterile black 96-well plates with a clear bottom. […] DMSO stock solutions of peptides (1 mM) were diluted in TSB media and added (15 μL) in technical triplicate to the 96-well plate, followed by diluted bacterial overnight cultures (135 μL). Control wells for 100% agr activity were wells replacing the peptide solution with TSB medium (15 μL). […] Wells containing 150 μL TSB medium were used to measure background fluorescence. The 96-well plates were incubated in a humidified incubator at 37°C shaking at 1,000 rpm for 22–24 h and fluorescence (for GFP: excitation 479 nm, emission 520 nm; for YFP: excitation 500 nm, emission 541 nm; automatic gain), and OD600 values were subsequently measured using a plate reader. Background fluorescence was subtracted from all wells and further normalized to the corresponding OD600 value of the respective wells. The average fluorescence of control wells was used as a relative measure for 100% activation of the agr-circuit, and bar graphs were generated using GraphPad Prism 10.4 software. All assays were performed in at least a biological duplicate.
(§3) Overnight cultures of the reporter strains were grown in TSB medium containing chloramphenicol (CAM, 10 μg/mL for S. aureus) or erythromycin (ERM, 10 μg/mL of S. epidermidis and S. lugdunensis) and diluted 1:100 in fresh TSB medium containing the same antibiotic. Assays were performed in sterile black 96-well plates with clear bottoms. Peptide solutions (15 μL) in 1:5 serial dilutions from DMSO stock solutions (1 mM) in TSB medium were added to the 96-well plate in technical duplicate followed by diluted bacterial overnight cultures (135 μL). Control wells for 100% agr activity were wells replacing the peptide solution with TSB medium (15 μL). Wells containing 150 μL TSB medium were used to measure background fluorescence. The 96-well plates were incubated in a humidified incubator at 37°C shaking at 1,000 rpm for 22–24 h and fluorescence (for GFP: excitation 479 nm, emission 520 nm; for YFP: excitation 500 nm, emission 541 nm; automatic gain), and OD600 values were subsequently measured using a plate reader. Background fluorescence was subtracted from all wells and further normalized to the corresponding OD600 value of the respective wells. The average fluorescence of control wells was used as a relative measure for 100% activation of the agr-circuit. Relative agr activity was plotted to obtain IC50 values by non-linear regression with variable slope using GraphPad Prism 10.4 software. All assays were performed in biological triplicate.

[13] = target: S. aureus agr-II (Staphylococcus aureus, UniProt O33587); experiment: cell-based
Description: as §2, §3

[14] = target: S. epidermidis agr-III (Staphylococcus epidermidis, UniProt Q8VSX2); experiment: cell-based; type: cell-based
Description: as §2, §3

[15] = target: S. aureus agr-IV (Staphylococcus aureus, UniProt Q309Z2); experiment: cell-based; type: cell-based; conditions: fluorescent reporter strain; peptides tested at 1000, 50, 2.5, 0.125 nM or in dose-response
Description: as §2, §3

Sequence of SA AgrC-III (O33590 entry or part of it): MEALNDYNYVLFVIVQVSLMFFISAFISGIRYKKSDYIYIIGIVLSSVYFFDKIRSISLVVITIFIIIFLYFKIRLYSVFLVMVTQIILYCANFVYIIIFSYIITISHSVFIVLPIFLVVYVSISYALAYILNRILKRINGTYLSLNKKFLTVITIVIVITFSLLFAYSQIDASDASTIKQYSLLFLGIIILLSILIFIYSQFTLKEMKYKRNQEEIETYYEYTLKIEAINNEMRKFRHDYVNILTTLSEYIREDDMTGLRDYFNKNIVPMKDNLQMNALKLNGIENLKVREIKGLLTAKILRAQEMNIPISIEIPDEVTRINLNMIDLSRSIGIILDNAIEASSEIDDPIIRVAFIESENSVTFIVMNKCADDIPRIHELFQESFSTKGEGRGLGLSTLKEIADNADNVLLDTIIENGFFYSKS
Sequence of SA AgrC-I (O07911 entry or part of it): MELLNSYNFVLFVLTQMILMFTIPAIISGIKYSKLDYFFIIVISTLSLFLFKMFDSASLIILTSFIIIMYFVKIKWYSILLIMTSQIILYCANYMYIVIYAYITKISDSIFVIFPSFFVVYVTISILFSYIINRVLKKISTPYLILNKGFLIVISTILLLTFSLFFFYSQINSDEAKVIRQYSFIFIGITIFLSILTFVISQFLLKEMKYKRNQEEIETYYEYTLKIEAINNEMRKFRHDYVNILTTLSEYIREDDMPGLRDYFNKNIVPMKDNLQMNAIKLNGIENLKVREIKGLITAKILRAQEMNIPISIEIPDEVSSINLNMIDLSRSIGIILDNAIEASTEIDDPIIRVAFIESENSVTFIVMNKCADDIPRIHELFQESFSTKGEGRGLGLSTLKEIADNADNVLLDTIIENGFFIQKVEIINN
Sequence of SA AgrC-IV (Q309Z2 entry or part of it): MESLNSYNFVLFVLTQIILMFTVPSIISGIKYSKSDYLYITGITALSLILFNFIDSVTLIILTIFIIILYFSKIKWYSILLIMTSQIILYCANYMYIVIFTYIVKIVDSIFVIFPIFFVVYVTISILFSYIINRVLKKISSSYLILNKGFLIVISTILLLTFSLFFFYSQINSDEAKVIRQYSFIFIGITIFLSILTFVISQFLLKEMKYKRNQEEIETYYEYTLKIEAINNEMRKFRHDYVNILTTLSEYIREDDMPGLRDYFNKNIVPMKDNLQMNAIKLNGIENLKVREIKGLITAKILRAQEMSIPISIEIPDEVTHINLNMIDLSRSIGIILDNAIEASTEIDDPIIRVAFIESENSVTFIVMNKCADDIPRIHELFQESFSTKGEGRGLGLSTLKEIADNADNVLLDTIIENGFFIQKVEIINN
Sequence of SA AgrC-II (O33587 entry or part of it): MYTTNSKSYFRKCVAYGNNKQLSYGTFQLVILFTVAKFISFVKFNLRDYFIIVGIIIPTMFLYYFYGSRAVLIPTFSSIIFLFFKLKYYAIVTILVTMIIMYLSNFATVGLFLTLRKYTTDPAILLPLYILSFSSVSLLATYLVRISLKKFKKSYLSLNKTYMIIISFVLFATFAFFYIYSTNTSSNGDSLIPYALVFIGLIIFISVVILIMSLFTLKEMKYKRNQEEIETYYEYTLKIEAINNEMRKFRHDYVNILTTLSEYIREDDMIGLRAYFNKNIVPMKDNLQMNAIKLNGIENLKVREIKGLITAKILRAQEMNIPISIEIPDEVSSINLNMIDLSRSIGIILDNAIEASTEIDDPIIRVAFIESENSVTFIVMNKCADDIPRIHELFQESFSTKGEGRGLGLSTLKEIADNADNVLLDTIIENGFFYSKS
Sequence of S. epidermidis agr-II (Q8VSX5 entry or part of it): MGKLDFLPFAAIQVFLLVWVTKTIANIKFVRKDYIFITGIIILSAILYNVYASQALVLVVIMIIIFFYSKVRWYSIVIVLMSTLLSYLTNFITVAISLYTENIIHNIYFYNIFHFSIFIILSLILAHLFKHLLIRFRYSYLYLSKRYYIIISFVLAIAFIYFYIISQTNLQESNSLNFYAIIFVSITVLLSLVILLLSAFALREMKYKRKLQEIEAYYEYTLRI
Sequence of S. epidermidis agr-III (Q8VSX2 entry or part of it): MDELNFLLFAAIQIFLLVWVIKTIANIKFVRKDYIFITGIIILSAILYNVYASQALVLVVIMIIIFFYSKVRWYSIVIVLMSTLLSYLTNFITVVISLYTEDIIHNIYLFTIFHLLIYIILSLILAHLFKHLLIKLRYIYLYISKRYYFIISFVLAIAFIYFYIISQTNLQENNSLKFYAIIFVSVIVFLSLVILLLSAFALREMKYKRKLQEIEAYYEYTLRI
Sequence of S. aureus agr-IV (Q309Z2 entry or part of it): as the sequence (Q309Z2 entry or part of it) above
Sequence of S. aureus agr-II (O33587 entry or part of it): as the sequence (O33587 entry or part of it) above

SMILES	IC50 [2] [nM]	IC50 [3] [nM]	IC50 [5] [nM]	IC50, SA AgrC-III, b-lactamase assay [6]	IC50, SA AgrC-IV, b-lactamase assay [2]	IC50, SA AgrC-II, b-lactamase assay [5]	IC50 [6] [nM]	other results
C[C@@H](O)[C@H](NC(=O)[C@H](CO)NC(=O)[C@@H](N)Cc1ccc(O)cc1)C(=O)N[C@H]1CSC(=O)[C@H](Cc2ccccc2)NC(=O)[C@H](Cc2ccc(O)cc2)NC(=O)[C@H](Cc2ccc(O)cc2)NC(=O)[C@H](CO)NC1=O [compound 20, S. caprae AIP-I] (H-YSTCSYYF; thioester 4-C)	199 ± 19	5.7 ± 0.8	252 ± 44	-a				IC50 ([1]; ref (15)): 8.98 ± 0.32 nM; IC50 ([4]; ref (15)): 0.2 nM; IC50 ([7]; ref (15)): 0.26 ± 0.08 nM; IC50 [8]: 0.6 ± 0.02 nM
CC[C@H](C)[C@H](NC(=O)[C@@H](N)[C@@H](C)O)C(=O)N[C@@H](CO)C(=O)N[C@@H](CO)C(=O)N[C@H](C(=O)N[C@@H](CCCCN)C(=O)N1CCC[C@H]1C(=O)N[C@H]1CSC(=O)[C@H](C(C)C)NC(=O)[C@H](Cc2ccccc2)NC(=O)CNC(=O)[C@H]([C@@H](C)O)NC1=O)C(C)C [compound 18, S. cohnii AIP-I] (H-TISSVKPCTGFV; thioester 8-C)		> 10000		-b	-b	-b		
CC(C)C[C@H](NC(=O)[C@H](C)NC(=O)CNC(=O)[C@H](C)NC(=O)[C@@H](NC(=O)[C@H](C)N)[C@@H](C)O)C(=O)N1CCC[C@H]1C(=O)N[C@H]1CSC(=O)[C@H](Cc2ccccc2)NC(=O)[C@H](Cc2ccccc2)NC(=O)CNC(=O)CNC1=O [compound 23, S. succinus AIP-I] (H-ATAGALPCGGFF; thioester 8-C)	> 1000	117 ± 26	854 ± 65				> 1000	
C[C@H](N)C(=O)N[C@@H](CC(N)=O)C(=O)N1CCC[C@H]1C(=O)N[C@H]1CSC(=O)[C@H](Cc2ccccc2)NC(=O)[C@H](Cc2ccc(O)cc2)NC(=O)CNC(=O)[C@H](C)NC1=O [compound 21, S. pasteuri AIP-I] (H-ANPCAGYF; thioester 4-C)	> 1000	155 ± 34				-b	191 ± 18	
CC(C)C[C@@H]1NC(=O)[C@H](Cc2ccc(O)cc2)NC(=O)[C@H](CO)NC(=O)[C@H](C)NC(=O)[C@@H](NC(=O)[C@@H]2CCCN2C(=O)[C@H](CC(N)=O)NC(=O)[C@H](Cc2ccc(O)cc2)NC(=O)[C@H](CCCCN)NC(=O)[C@H](C)NC(=O)[C@H](C)NC(=O)[C@@H](N)CC(N)=O)CSC1=O [compound 7, S. epidermidis AIP-III] (H-NAAKYNPCASYL; thioester 8-C)		> 10000			-b	-b	> 10000	effect from supernatant (% inhibition, activation or no effect), SE agr-III [9]: activation; effect from supernatant (% inhibition, activation or no effect), SE agr-II [10]: no effect; effect from supernatant (% inhibition, activation or no effect), SE agr-I ([11]; from supernatant, ref (18)): ~ 50%; IC50 ([11]; ref (11)): 34.3 nM; QS interaction in words (inhibition / activation), S. epidermidis agr-II [12]: activator
CC[C@H](C)[C@H](NC(=O)[C@@H](N)CC(=O)O)C(=O)N[C@H]1CSC(=O)[C@H](Cc2ccccc2)NC(=O)[C@H](Cc2ccc(O)cc2)NC(=O)[C@H](C)NC(=O)[C@H](CC(N)=O)NC1=O [compound 8, S. lugdunensis AIP-I] (H-DICNAYF; thioester 3-C; N-terminus assumed)					-b	-b	> 1000	IC50 ([1]; ref (10)): > 1000 nM; IC50 ([4]; ref (10)): 36.6 nM; IC50 [13]: 234 nM; IC50 [14]: 66.8 ± 2.9 nM; QS interaction in words (inhibition / activation), S. aureus agr-IV [15]: no effect at 1000 nM; IC50 ([7]; ref (10)): 419 nM
